Results as given in PubChem BioAssay (NCI).
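In this assay, cells in 96-well plates receive the compound at five concentrations for 48 hours. Endpoints are linearly interpolated between the surrounding concentrations. GI50: concentration for 50% inhibition of growth. TGI: total growth inhibition.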

What was measured:
Assay in all cases: NCI anticancer screen, dose series, 48 h
[1] = test system: SR leukemia
[2] = test system: SK-MEL-5 melanoma
[3] = test system: SK-OV-3 ovarian
[4] = test system: EKVX NSCLC
[5] = test system: LOX IMVI melanoma
[6] = test system: IGROV1 ovarian
[7] = test system: UO-31 renal
[8] = test system: CAKI-1 renal
[9] = test system: HCC-2998 colon
[10] = test system: MDA-MB-231 breast

SMILES	TGI [1] [µM]	TGI [2] [µM]	TGI [3] [µM]	TGI [4] [µM]	TGI [5] [µM]	TGI [6] [µM]	TGI [7] [µM]	TGI [8] [µM]	TGI [9] [µM]	GI50 [1] [µM]	GI50 [2]	GI50 [10]	TGI [10] [µM]	GI50 [3] [µM]	GI50 [5]	GI50 [6]	GI50 [7]	GI50 [8] [µM]	GI50 [9] [µM]	GI50 [4]
[O-][n+]1c2cc(CN3CCOCC3)c(CN3CCOCC3)cc2[n+]([O-])c2c(O)cccc21	0.701	> 37.9	13.5	20.2	16.3	13	10.4	> 23.9												
N#CC(C(=O)CCC(=O)Nc1ccc(Cl)c(Cl)c1)c1ccc(Cl)cc1 (centres undefined)		> 100		> 100	> 100	> 100	> 100	> 100	> 100											
O=C(NC1C=Nc2ccccc2NC1=O)c1ccccc1Cl (centres undefined)	> 100	> 100	> 100	> 100	> 100	> 100	> 100	> 100	> 100											
O=S(=O)(N/N=C/c1ccc(Cl)cc1Cl)c1ccccc1	> 100	> 100	> 100	> 100	> 100	> 100	> 100	> 100	> 100											
NS(=O)(=O)c1ccc(NC(=O)c2cccc3c(Nc4ccc(S(N)(=O)=O)cc4)c4ccccc4nc23)cc1		> 100	> 100	> 100	> 100	> 100	> 100	> 100												
COc1ccc(/C=N\O[Si](C)(C)C(C)(C)C)cc1O[Si](C)(C)C(C)(C)C		33.9	46.5	41.6	36.5	36	27.9	40.2	32.9											
O=[N+]([O-])c1cc2c(ccc3occc32)o1	9.64	2.54	9.66		3.85	7.32	7.65	4.57	3.88	2	1.17 µM	1.84 µM	5.83	3.03	1.25 µM	1.55 µM	1.99 µM	1.87	1.88	
O=c1cc(-c2ccc(O)cc2)oc2cc(O)cc(O)c12	> 100	87.2	89.8	96.9	86.6	80	56.4		56.8											
NS(=O)(=O)c1ccc(N2N=C(c3cccs3)CC2c2ccccc2O)cc1 (centres undefined)	> 33.3	5.68	10.1		5.22	14.2	12.1	8.19	5.12	1.36	1.47 µM	0.972 µM	3.19	1.18	1.25 µM	1.6 µM	4.01 µM	1.47	1.33	
CCCCCCCCCCCCCCCCCc1nnc(N)o1	> 100		> 100		> 100	> 100	> 100	> 100	> 100											
O=CN1N=C(c2ccc(Nc3ccnc4cc(Cl)ccc34)cc2)CC1c1ccc(Cl)cc1 (centres undefined)	> 100	> 100			> 100	> 100	> 100	> 100	8.11	0.324	0.809 µM	1.43 µM	> 100		0.599 µM	5.01 µM	1.3 µM	0.409	1.61	
O=C(O)c1cc(=O)c2cc(C(=O)c3cccs3)c(Cl)c(Cl)c2o1	> 100	> 100	> 100	> 100		> 100	> 100	> 100	> 100											
COC1OC(C(C)O)C2OC(C)(C)OC12 (centres undefined)	> 100	> 100	> 100	> 100	> 100	> 100	> 100	> 100					> 100							
O=C(CC(=O)C1CCOC1=O)C(=O)Nc1ccc(Cl)cc1 (centres undefined)		> 100	> 100	> 100	> 100	> 100	> 100	> 100	> 100											
Clc1ccc(/C=C/c2nc(Cl)c(-c3ccc(Cl)cc3)c(Cl)n2)cc1		> 100	> 100	> 100	> 100	> 100	43.2	> 100					> 100							
COc1ccc(C=C2C(=O)NC(=O)NC2=O)cc1OCc1ccccc1											49 µg/mL	31.4 µg/mL			52.5 µg/mL	27.1 µg/mL	33 µg/mL			85.2 µg/mL
NC(=O)N/N=C(\CCC(=O)N(Cc1ccccc1)Cc1ccccc1)CC(=O)c1ccc(F)cc1	> 100	> 100	> 100	> 100	> 100	> 100	> 100	> 100	> 100											
COC(=O)c1nc(N)nc(C(=O)OC)c1C(=O)c1ccccc1	> 100	> 100	> 100	> 100	> 100	> 100	> 100		> 100											
COC1(Cc2ccccc2)C(=O)c2ccccc2N1C(C)=O (centres undefined)	> 100		> 100	> 100		> 100	> 100	> 100	> 100											
COc1ccc(/C(C#N)=C(/N)SCc2ccccc2Cl)cc1	> 100		86.9	48.2	29	> 100	> 10		31.7											
C=C(C)C(=O)O[C@H]1CC2=CC(CC(C)=C[C@H]3OC(=O)C(=C)C13)OC2=O (some centres undefined)		> 100		43.8	53.7	> 100		34.4	> 100				60.8							
CC(=O)O[C@H]1CC[C@@]2(C)C(=C/C(=N\[N+](=O)[O-])[C@H]3C4CCC([C@H](C)CCCC(C)C)[C@@]4(C)CCC32)C1 (some centres undefined)		> 100	> 100	> 100	> 100	> 100	> 100	> 100												

SMILES	TGI [1] [µM]	TGI [2] [µM]	TGI [3] [µM]	TGI [4] [µM]	TGI [5] [µM]	TGI [6] [µM]	TGI [7] [µM]	TGI [8] [µM]	TGI [9] [µM]	GI50 [1] [µM]	GI50 [2]	GI50 [10]	TGI [10] [µM]	GI50 [3] [µM]	GI50 [5]	GI50 [6]	GI50 [7]	GI50 [8] [µM]	GI50 [9] [µM]	GI50 [4]
O=c1[nH]cnc2c1ncn2CCCCO	> 100	> 100		> 100	> 100	> 100	> 100	> 100	> 100											
O=C1NC(SCc2ccc(F)cc2)=N/C1=C/c1cccc(OCc2ccc(Cl)cc2)c1	76.2	> 100	> 100	> 100	> 100	> 100			> 100	5.05	> 100 µM	24.6 µM	> 100	36.9	6 µM	4.91 µM			51.1	8.86 µM
Cc1ccc(Nc2nc(C)c(C(/C=C/c3ccc4c(c3)OCO4)=N/Nc3ccc([N+](=O)[O-])cc3[N+](=O)[O-])s2)c([N+](=O)[O-])c1	> 100		> 100	> 100	> 100	> 100	> 100	> 100	> 100											
OC1c2ccccc2C2C(O)c3ccccc3C12 (centres undefined)		> 100	> 100	> 100	> 100	> 100	> 100	> 100	> 100											
CC1=C(C(=O)Nc2ccccc2C)C(c2ccccc2C)C(C(=O)Nc2ccccc2C)=C(C)N1	65.4			42.3	30.3	40.1	30.2		36.4											
COc1cc(/C=C\c2ccc(Cl)cc2)cc(OC)c1OC	16.7	12.8	89.3	> 87.5	> 100	> 100	> 43.6	47.4	32.7											
CC1CC(=O)c2c(ccc3c2C(=O)c2cccc(O)c2C3=O)C1 (centres undefined)	35.9	8.48	57.2	28	16		24.2		23.2											
O=C(CN1C(=O)S/C(=C\C(Cl)=C\c2ccccc2)C1=O)NCCCn1ccnc1		3.06	> 100	6.69	2.75	4.23	3.49	4.16	3.57		1.68 µM			5.23	1.37 µM	1.82 µM	1.61 µM	1.91	1.88	2.43 µM
CCOC(=O)c1cn(CC)c2cc3c(cc2c1=O)SCS3		> 100	> 100	> 100	> 100	> 100	> 100	> 100	> 100											
CCSC(=O)C1(C)OC2CCCCC2C1=O (centres undefined)	> 100	> 100	> 100			> 100	> 100	> 100	> 100											
CCOC(=O)C1Oc2ccc([N+](=O)[O-])cc2C1(C)O (centres undefined)	> 100	> 100	> 100	> 100	> 100	> 100	> 100		> 100											
O=C1NN=CN2C(=O)CCC12 (centres undefined)	> 100	> 100	> 100	> 100	> 100	> 100	> 100	> 100	> 100											
COC1C(O)C(C)OC(O[C@@H]2C[C@H]3CC[C@@H]4[C@H](CC[C@]5(C)[C@@H](C6=CC(=O)OC6)CC[C@]45O)[C@@]3(C)[C@H](O)C2)C1O (some centres undefined)		0.122	0.347	0.168	0.233			0.0215	2.69				> 100							
Cc1cc(C)nc(NS(=O)(=O)c2ccc(NC(=O)c3cccc4c(N)c5ccccc5nc34)cc2)n1		> 100	> 100	> 100	> 100	> 100	> 100	> 100	> 100											
NNC(=S)N/N=C(/C(=O)Nc1ccc([N+](=O)[O-])cc1)c1nc2ccc([N+](=O)[O-])cc2[nH]c1=O	> 100	> 100	> 100	> 100	> 100	> 100	> 100	> 100	> 100											
COC(=O)C1C(/C=C/c2ccoc2)ON2CCC[C@@H]12 (some centres undefined)	> 100			> 100	> 100		> 100	> 100	> 100											
O=C1NN=C(c2ccc([N+](=O)[O-])cc2)C1n1nc(-c2ccccc2)c2ccccc2c1=O (centres undefined)	> 100	> 100	> 100	> 100	> 100	> 100	> 100	> 100	> 100											
Nc1ccccc1C#C/C=C\C#Cc1ccccc1F		12.3	46	53.2	14.2	28.8	35	9.36	5.26		2.73 µM	10.1 µM	25.4	16.7	4.07 µM	5.34 µM	11.9 µM	2.89	2.25	10.8 µM
O=C(NN1C(=O)CSC12CCC(c1ccccc1)CC2)c1[nH]c2ccc(F)cc2c1-c1ccccc1 (centres undefined)		32.3	> 100	62	30.8	25.7	31	36.6	28.3		17.5 µM	16.9 µM	31.6	37.7	17.1 µM	13 µM	17 µM	17.5	14.9	26.7 µM
COc1ccc2c(c1OC)C(=O)O[C@@H]2[C@H]1c2c(c(Br)c3c(c2OC)OCO3)CCN1C	> 100	> 100	> 100	> 100	> 100	> 100	> 100	37.5		0.918	4.12 µM			> 100	6 µM	7.77 µM	> 100 µM	4.22		41.8 µM
CCOC(=O)/C=C1\Oc2ccccc2C1(C)O (centres undefined)	> 100	> 100	> 100	> 100	> 100	> 100	> 100	> 100	> 100											
